The text below walks through data of patent publication US10758534B2 (Vertex Pharmaceuticals Incorporated, priority 2014, dated 2020).

For this assay, the target named is T1, F508del (Homo sapiens, UniProt P13569, DEL508-508).
T1 construct: expressed in transfected cells
T1 sequence (P13569 with tags, fused parts or gaps DEL508-508): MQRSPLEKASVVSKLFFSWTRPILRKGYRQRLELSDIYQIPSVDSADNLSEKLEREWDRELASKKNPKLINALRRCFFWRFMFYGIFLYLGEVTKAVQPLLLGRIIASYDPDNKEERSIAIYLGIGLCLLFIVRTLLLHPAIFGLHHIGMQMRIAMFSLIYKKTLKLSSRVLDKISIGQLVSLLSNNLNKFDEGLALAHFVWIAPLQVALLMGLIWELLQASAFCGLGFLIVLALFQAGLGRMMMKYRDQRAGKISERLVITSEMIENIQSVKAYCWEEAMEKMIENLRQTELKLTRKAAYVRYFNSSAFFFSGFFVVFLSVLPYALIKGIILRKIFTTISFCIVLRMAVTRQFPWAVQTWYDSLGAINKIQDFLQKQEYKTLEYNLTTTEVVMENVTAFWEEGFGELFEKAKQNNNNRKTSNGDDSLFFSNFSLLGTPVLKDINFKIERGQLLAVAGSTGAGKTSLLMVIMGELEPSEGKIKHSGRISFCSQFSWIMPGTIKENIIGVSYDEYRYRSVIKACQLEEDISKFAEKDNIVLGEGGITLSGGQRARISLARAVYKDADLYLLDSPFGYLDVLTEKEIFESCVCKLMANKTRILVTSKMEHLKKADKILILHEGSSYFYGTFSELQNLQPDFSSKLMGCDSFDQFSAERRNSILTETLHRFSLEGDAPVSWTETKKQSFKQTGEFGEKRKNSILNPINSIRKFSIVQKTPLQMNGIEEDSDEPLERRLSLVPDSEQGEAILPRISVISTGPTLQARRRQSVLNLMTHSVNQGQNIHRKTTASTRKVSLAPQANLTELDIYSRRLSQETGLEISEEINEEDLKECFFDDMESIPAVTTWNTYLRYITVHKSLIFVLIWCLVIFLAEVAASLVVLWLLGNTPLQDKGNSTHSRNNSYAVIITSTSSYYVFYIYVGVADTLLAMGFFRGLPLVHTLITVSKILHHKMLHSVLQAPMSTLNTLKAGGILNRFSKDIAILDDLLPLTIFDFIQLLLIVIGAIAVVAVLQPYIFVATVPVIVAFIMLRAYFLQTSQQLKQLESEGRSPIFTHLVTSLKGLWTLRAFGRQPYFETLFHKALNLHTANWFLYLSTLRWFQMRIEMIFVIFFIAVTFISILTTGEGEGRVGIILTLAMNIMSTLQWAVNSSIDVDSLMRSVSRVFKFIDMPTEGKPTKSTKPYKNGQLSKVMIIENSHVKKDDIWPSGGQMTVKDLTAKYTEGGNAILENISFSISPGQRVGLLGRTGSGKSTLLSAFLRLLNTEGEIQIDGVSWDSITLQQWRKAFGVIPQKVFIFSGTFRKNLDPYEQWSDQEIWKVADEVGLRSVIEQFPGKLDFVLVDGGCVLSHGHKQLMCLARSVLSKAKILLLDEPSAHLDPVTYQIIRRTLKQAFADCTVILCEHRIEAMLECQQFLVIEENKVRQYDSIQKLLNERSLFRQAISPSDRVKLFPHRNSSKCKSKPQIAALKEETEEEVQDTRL
Briefly: Protocol 1: membrane potential optical assay (FLIPR III, voltage sensing dye), identification of potentiator compounds. Format: cell-based. The note with it: Table 3, compounds of Table 1. In outline: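 Mouse NIH 3T3 fibroblasts stably expressing F508del, temperature-corrected at 27 °C for 24 h, pretreated with compound, then loaded with voltage-sensing redistribution dye. Forskolin was added in a single step with a chloride gradient (chloride-free gluconate bath; Bath Solution #1 HEPES pH 7.4). Membrane-potential fluorescence read on FLIPR III.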
With `CC(C)COc1ccn(-c2ccc(C(=O)NS(=O)(=O)c3cccc(N)n3)c(N3C[C@@H](C)CC3(C)C)n2)n1` [Compound 1620, N-[(6-amino-2-pyridyl)sulfonyl]-6-(3-isobutoxypyrazol-1-yl)-2-[(4S)-2,2,4-trimethylpyrrolidin-1-yl]pyridine-3-carboxamide], the EC30 entry was “+++ (“+++” means <3 uM)”.

`CC1CN(c2nc(-c3ccc(OCC(C)(C)C)nc3)ccc2C(=O)NS(=O)(=O)c2cccc(N)n2)C(C)(C)C1` (centres unmarked) [Compound 1181, N-[(6-amino-2-pyridyl)sulfonyl]-6-[6-(2,2-dimethylpropoxy)-3-pyridyl]-2-(2,2,4-trimethylpyrrolidin-1-yl)pyridine-3-carboxamide]: the EC30 result is on record as “+++ (“+++” means <3 uM)”.

For the molecule `Cc1cc(C)c(Cn2nc(C(C)(C)C)cc2C(=O)NS(=O)(=O)c2ccncc2)c(C)c1` [Compound 1585, 5-tert-butyl-N-(4-pyridylsulfonyl)-2-[7(2,4,6-trimethylphenyl)methyl]pyrazole-3-carboxamide], the EC30 entry was “+++ (“+++” means <3 uM)”.

With `Cc1cc(C)c(Oc2nc(C(C)(C)C)ccc2C(=O)NS(=O)(=O)c2c(C)cc[nH]c2=O)c(C)c1` [Compound 1311, 6-tert-butyl-N-[(4-methyl-2-oxo-1H-pyridin-3-yl)sulfonyl]-2-(2,4,6-trimethylphenoxy)pyridine-3-carboxamide], the EC30 entry was “+++ (“+++” means <3 uM)”.

As for `CC(C)Oc1ccc(-c2ccc(C(=O)NS(=O)(=O)c3cccnc3N)c(N3[C@H](C)CC[C@@H]3C)n2)cn1` [Compound 1316, N-[(2-amino-3-pyridyl)sulfonyl]-2-[(2S,5R)-2,5-dimethylpyrrolidin-1-yl]-6-(6-isopropoxy-3-pyridyl)pyridine-3-carboxamide], the EC30 result is on record as “+++ (“+++” means <3 uM)”.

Take `CC(C)COc1cc(F)cc(-c2ccc(C(=O)NS(=O)(=O)c3cccc(N)n3)c(OC3CCCCCC3)n2)c1` [Compound 1263, N-[(6-amino-2-pyridyl)sulfonyl]-2-(cycloheptoxy)-6-(3-fluoro-5-isobutoxy-phenyl)pyridine-3-carboxamide]: the EC30 entry is recorded as “+++ (“+++” means <3 uM)”.

On to `COc1ncccc1S(=O)(=O)NC(=O)c1cc2ccc(C)cc2nc1N1C[C@@H](C)CC1(C)C` [Compound 1859, N-[(2-methoxy-3-pyridyl)sulfonyl]-7-methyl-2-[(4S)-2,2,4-trimethylpyrrolidin-1-yl]quinoline-3-carboxamide], for which the EC30 entry is given as “+++ (“+++” means <3 uM)”.

In the case of `C[C@@H]1CN(c2nc(-c3cccc(O)c3)ccc2C(=O)NS(=O)(=O)c2cccnc2N)C(C)(C)C1` [Compound 1820, N-[(2-amino-3-pyridyl)sulfonyl]-6-(3-hydroxyphenyl)-2-[(4S)-2,2,4-trimethylpyrrolidin-1-yl]pyridine-3-carboxamide], the EC30 result was “++ (“++” means between 3 uM and 10 uM)”.

Consider `Cc1ccc(-c2ccc(C(=O)NS(=O)(=O)c3nccnc3N)c(NCC3(C)CCOCC3)n2)cc1` [Compound 1066, N-(3-aminopyrazin-2-yl)sulfonyl-2-[(4-methyltetrahydropyran-4-yl)methylamino]-6-(p-tolyl)pyridine-3-carboxamide], for which the EC30 entry was “++ (“++” means between 3 uM and 10 uM)”.

As to `Cc1cc(C)c(Oc2nc(N3[C@H](C)CC[C@@H]3C)c(C)cc2C(=O)NS(=O)(=O)c2cccc(N)n2)c(C)c1` [Compound 1589, N-[(6-amino-2-pyridyl)sulfonyl]-6-[(2R,5S)-2,5-dimethylpyrrolidin-1-yl]-5-methyl-2-(2,4,6-trimethylphenoxy)pyridine-3-carboxamide], the EC30 entry was “+++ (“+++” means <3 uM)”.

Turning to `CC[C@H](C)Oc1ncc(-c2ccc(C(=O)NS(=O)(=O)c3cccc(N)n3)c(N3C[C@@H](C)CC3(C)C)n2)cc1C` [Compound 1728, N-[(6-amino-2-pyridyl)sulfonyl]-6-[5-methyl-6-[(1 S)-1-methylpropoxy]-3-pyridyl]-2-[(4S)-2,2,4-trimethylpyrrolidin-1-yl]pyridine-3-carboxamide], the EC30 result is on record as “+++ (“+++” means <3 uM)”.

Regarding `COc1c(F)cccc1-c1ccc(C(=O)NS(=O)(=O)c2ccc[nH]c2=O)c(N2C[C@@H](C)CC2(C)C)n1` [Compound 1779, 6-(3-fluoro-2-methoxy-phenyl)-N-[(2-oxo-1H-pyridin-3-yl)sulfonyl]-2-[(4S)-2,2,4-trimethylpyrrolidin-1-yl]pyridine-3-carboxamide], the EC30 result was “+++ (“+++” means <3 uM)”.

As to `CC(C)COc1cc(F)cc(-c2ccc(C(=O)NS(=O)(=O)c3cccc(N)n3)c(N3CCC(C)C(C)C3)n2)c1` (single isomer, unassigned) [Compound 1863, N-[(6-amino-2-pyridyl)sulfonyl]-2-(3,4-dimethyl-1-piperidyl)-6-(3-fluoro-5-isobutoxy-phenyl)pyridine-3-carboxamide], the EC30 entry was “+++ (“+++” means <3 uM)”.

Take `Cc1cc(C)c(Oc2nc(-c3cccc(OCC(C)C)c3F)ccc2C(=O)NS(=O)(=O)c2ccc[nH]c2=O)c(C)c1` [Compound 804, 6-(2-fluoro-3-isobutoxy-phenyl)-N-[(2-oxo-1H-pyridin-3-yl)sulfonyl]-2-(2,4,6-trimethylphenoxy)pyridine-3-carboxamide]: the EC30 result is listed as “+++ (“+++” means <3 uM)”.

As for `CC(C)COc1cc(F)cc(-c2ccc(C(=O)NS(=O)(=O)c3cccc(N)n3)c(C3=CC(C)(C)OC(C)(C)C3)n2)c1` [Compound 1368, N-[(6-amino-2-pyridyl)sulfonyl]-6-(3-fluoro-5-isobutoxy-phenyl)-2-(2,2,6,6-tetramethyl-3H-pyran-4-yl)pyridine-3-carboxamide], the EC30 result is recorded as “+++ (“+++” means <3 uM)”.

Turning to `CC(C)COc1cc(-c2ccc(C(=O)NS(=O)(=O)c3cccc(N)n3)c(N3C[C@@H](C)CC3(C)C)n2)ccn1` [Compound 1618, N-[(6-amino-2-pyridyl)sulfonyl]-6-(2-isobutoxy-4-pyridyl)-2-[(4S)-2,2,4-trimethylpyrrolidin-1-yl]pyridine-3-carboxamide], the EC30 result is on record as “+++ (“+++” means <3 uM)”.

Take `CC(C)Oc1ccc(-c2ccc(C(=O)NS(=O)(=O)c3cccc(N)n3)c(NCc3ccccc3)n2)cn1` [Compound 1026, N-[(6-amino-2-pyridyl)sulfonyl]-2-(benzylamino)-6-(6-isopropoxy-3-pyridyl)pyridine-3-carboxamide]: the EC30 result is “++ (“++” means between 3 uM and 10 uM)”.

`CC(C)COc1cc(F)cc(-c2ccc(C(=O)NS(=O)(=O)c3ccn[nH]3)c(N3CCCC3(C)C)n2)c1` [Compound 1302, 2-(2,2-dimethylpyrrolidin-1-yl)-6-(3-fluoro-5-isobutoxy-phenyl)-N-(1H-pyrazol-5-ylsulfonyl)pyridine-3-carboxamide]: the EC30 result was “++ (“++” means between 3 uM and 10 uM)”.

On to `CC1CN(c2nc(-c3cc(F)cc(OC(C)C)c3)ccc2C(=O)NS(=O)(=O)c2cccc(N)n2)C(C)(C)C1` (centres unmarked) [Compound 972, N-[(6-amino-2-pyridyl)sulfonyl]-6-(3-fluoro-5-isopropoxy-phenyl)-2-(2,2,4-trimethylpyrrolidin-1-yl)pyridine-3-carboxamide], for which the EC30 entry is given as “+++ (“+++” means <3 uM)”.

As to `CC(C)COc1cc(F)cc(-c2ccc(C(=O)NS(=O)(=O)c3cccc(N)n3)c(N3C[C@H](C)CC3(C)C)n2)c1` [Compound 1289, N-[(6-amino-2-pyridyl)sulfonyl]-6-(3-fluoro-5-isobutoxy-phenyl)-2-[(4R)-2,2,4-trimethylpyrrolidin-1-yl]pyridine-3-carboxamide], the EC30 entry is “+++ (“+++” means <3 uM)”.
